Test results: the supplement of paper PMC10307832

How the values were obtained:
Assay in all cases: relative viability (nuclei count vs DMSO), 5 days (fraction); higher = more cells survive
Tivantinib + Vorinostat = compound: O=C1NC(=O)[C@@H](c2cn3c4c(cccc24)CCC3)[C@@H]1c1c[nH]c2ccccc12 [Tivantinib] + O=C(CCCCCCC(=O)Nc1ccccc1)NO [Vorinostat] (partner 1 µM)
In short: (§1)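 Medians of duplicate plates are given as relative viability. That measure is the nuclei count in treated wells divided by the count in vehicle wells. Counts were taken on 4× images of lung cancer cell lines in 1536-well plates, 5 days after pin-tool dosing the day after seeding with one drug alone or a fixed anchor-drug dose plus five library-drug doses (not always all listed) in √10 steps.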

Crenolanib + Alpelisib = compound: CC1(COc2ccc3c(c2)ncn3-c2ccc3cccc(N4CCC(N)CC4)c3n2)COC1 [Crenolanib] + Cc1nc(NC(=O)N2CCC[C@H]2C(N)=O)sc1-c1ccnc(C(C)(C)C(F)(F)F)c1 [Alpelisib] (partner 2 µM)
In short: as §1

Crenolanib + Phenformin = compound: CC1(COc2ccc3c(c2)ncn3-c2ccc3cccc(N4CCC(N)CC4)c3n2)COC1 [Crenolanib] + N=C(N)NC(=N)NCCc1ccccc1 [Phenformin] (partner 250 µM)
In short: as §1

Crenolanib + Trametinib = compound: CC1(COc2ccc3c(c2)ncn3-c2ccc3cccc(N4CCC(N)CC4)c3n2)COC1 [Crenolanib] + CC(=O)Nc1cccc(-n2c(=O)n(C3CC3)c(=O)c3c(Nc4ccc(I)cc4F)n(C)c(=O)c(C)c32)c1 [Trametinib] (partner 0.02 µM)
In short: as §1

Cell Line: HCC-827
- relative viability (Tivantinib + Vorinostat; first compound 0.01 µM): 0.826
- relative viability (Tivantinib + Vorinostat; first compound 0.03162 µM): 0.809
- relative viability (Tivantinib + Vorinostat; first compound 0.1 µM): 0.862
- relative viability (Crenolanib + Alpelisib; first compound 0.01 µM): 1.04
- relative viability (Crenolanib + Alpelisib; first compound 0.03162 µM): 1.01
- relative viability (Crenolanib + Alpelisib; first compound 0.1 µM): 0.916
- relative viability (Crenolanib + Alpelisib; first compound 0.3162 µM): 1.03
- relative viability (Crenolanib + Alpelisib; first compound 1 µM): 0.992
- relative viability (Crenolanib + Phenformin; first compound 0.01 µM): 0.446
- relative viability (Crenolanib + Phenformin; first compound 0.03162 µM): 0.401
- relative viability (Crenolanib + Phenformin; first compound 0.1 µM): 0.427
- relative viability (Crenolanib + Phenformin; first compound 0.3162 µM): 0.445
- relative viability (Crenolanib + Phenformin; first compound 1 µM): 0.403
- relative viability (Crenolanib + Trametinib; first compound 0.01 µM): 0.595
- relative viability (Crenolanib + Trametinib; first compound 0.03162 µM): 0.529
- relative viability (Crenolanib + Trametinib; first compound 0.1 µM): 0.505
- relative viability (Crenolanib + Trametinib; first compound 0.3162 µM): 0.473
- relative viability (Crenolanib + Trametinib; first compound 1 µM): 0.6

Cell Line: HOP-62
- relative viability (Tivantinib + Vorinostat; first compound 0.01 µM): 0.606
- relative viability (Tivantinib + Vorinostat; first compound 0.03162 µM): 0.301
- relative viability (Tivantinib + Vorinostat; first compound 0.1 µM): 0.554
- relative viability (Tivantinib + Vorinostat; first compound 0.3162 µM): 0.803
- relative viability (Crenolanib + Alpelisib; first compound 0.01 µM): 0.851
- relative viability (Crenolanib + Alpelisib; first compound 0.03162 µM): 0.985
- relative viability (Crenolanib + Alpelisib; first compound 0.1 µM): 1.03
- relative viability (Crenolanib + Alpelisib; first compound 0.3162 µM): 1.06
- relative viability (Crenolanib + Alpelisib; first compound 1 µM): 0.941
- relative viability (Crenolanib + Phenformin; first compound 0.01 µM): 0.616
- relative viability (Crenolanib + Phenformin; first compound 0.03162 µM): 0.711
- relative viability (Crenolanib + Phenformin; first compound 0.1 µM): 0.722
- relative viability (Crenolanib + Phenformin; first compound 0.3162 µM): 0.815
- relative viability (Crenolanib + Phenformin; first compound 1 µM): 0.7
- relative viability (Crenolanib + Trametinib; first compound 0.01 µM): 0.43
- relative viability (Crenolanib + Trametinib; first compound 0.03162 µM): 0.372
- relative viability (Crenolanib + Trametinib; first compound 0.1 µM): 0.368
- relative viability (Crenolanib + Trametinib; first compound 0.3162 µM): 0.379
- relative viability (Crenolanib + Trametinib; first compound 1 µM): 0.37

Cell Line: IA-LM
- relative viability (Tivantinib + Vorinostat; first compound 0.01 µM): 1.01
- relative viability (Tivantinib + Vorinostat; first compound 0.03162 µM): 0.826
- relative viability (Tivantinib + Vorinostat; first compound 0.1 µM): 0.87
- relative viability (Tivantinib + Vorinostat; first compound 0.3162 µM): 0.895
- relative viability (Crenolanib + Alpelisib; first compound 0.01 µM): 0.786
- relative viability (Crenolanib + Alpelisib; first compound 0.03162 µM): 0.819
- relative viability (Crenolanib + Alpelisib; first compound 0.1 µM): 0.75
- relative viability (Crenolanib + Alpelisib; first compound 0.3162 µM): 0.898
- relative viability (Crenolanib + Alpelisib; first compound 1 µM): 0.854

Cell Line: LC-2-ad
- relative viability (Tivantinib + Vorinostat; first compound 0.01 µM): 0.694
- relative viability (Tivantinib + Vorinostat; first compound 0.03162 µM): 0.694
- relative viability (Tivantinib + Vorinostat; first compound 0.1 µM): 0.655
- relative viability (Tivantinib + Vorinostat; first compound 0.3162 µM): 0.715
- relative viability (Crenolanib + Alpelisib; first compound 0.01 µM): 0.945
- relative viability (Crenolanib + Alpelisib; first compound 0.03162 µM): 0.886
- relative viability (Crenolanib + Alpelisib; first compound 0.1 µM): 0.815
- relative viability (Crenolanib + Alpelisib; first compound 0.3162 µM): 1.03
- relative viability (Crenolanib + Alpelisib; first compound 1 µM): 0.89
- relative viability (Crenolanib + Phenformin; first compound 0.01 µM): 0.648
- relative viability (Crenolanib + Phenformin; first compound 0.03162 µM): 0.562
- relative viability (Crenolanib + Phenformin; first compound 0.1 µM): 0.573
- relative viability (Crenolanib + Phenformin; first compound 0.3162 µM): 0.536
- relative viability (Crenolanib + Phenformin; first compound 1 µM): 0.446
- relative viability (Crenolanib + Trametinib; first compound 0.01 µM): 1.05
- relative viability (Crenolanib + Trametinib; first compound 0.03162 µM): 0.901
- relative viability (Crenolanib + Trametinib; first compound 0.1 µM): 0.916
- relative viability (Crenolanib + Trametinib; first compound 0.3162 µM): 0.97
- relative viability (Crenolanib + Trametinib; first compound 1 µM): 0.894

Cell Line: LCLC-97TM1
- relative viability (Tivantinib + Vorinostat; first compound 0.01 µM): 0.71
- relative viability (Tivantinib + Vorinostat; first compound 0.03162 µM): 0.284
- relative viability (Tivantinib + Vorinostat; first compound 0.1 µM): 0.671
- relative viability (Tivantinib + Vorinostat; first compound 0.3162 µM): 0.833
- relative viability (Crenolanib + Alpelisib; first compound 0.01 µM): 0.257
- relative viability (Crenolanib + Alpelisib; first compound 0.03162 µM): 0.287
- relative viability (Crenolanib + Alpelisib; first compound 0.1 µM): 0.326
- relative viability (Crenolanib + Alpelisib; first compound 0.3162 µM): 0.287
- relative viability (Crenolanib + Alpelisib; first compound 1 µM): 0.308
- relative viability (Crenolanib + Phenformin; first compound 0.01 µM): 0.476
- relative viability (Crenolanib + Phenformin; first compound 0.03162 µM): 0.477
- relative viability (Crenolanib + Phenformin; first compound 0.1 µM): 0.457
- relative viability (Crenolanib + Phenformin; first compound 0.3162 µM): 0.455
- relative viability (Crenolanib + Phenformin; first compound 1 µM): 0.455
- relative viability (Crenolanib + Trametinib; first compound 0.01 µM): 0.215
- relative viability (Crenolanib + Trametinib; first compound 0.03162 µM): 0.176
- relative viability (Crenolanib + Trametinib; first compound 0.1 µM): 0.186
- relative viability (Crenolanib + Trametinib; first compound 0.3162 µM): 0.188
- relative viability (Crenolanib + Trametinib; first compound 1 µM): 0.199

Cell Line: LCLC-103H
- relative viability (Tivantinib + Vorinostat; first compound 0.01 µM): 0.756
- relative viability (Tivantinib + Vorinostat; first compound 0.03162 µM): 0.642
- relative viability (Tivantinib + Vorinostat; first compound 0.1 µM): 0.749
- relative viability (Tivantinib + Vorinostat; first compound 0.3162 µM): 0.936
- relative viability (Crenolanib + Alpelisib; first compound 0.01 µM): 0.852
- relative viability (Crenolanib + Alpelisib; first compound 0.03162 µM): 0.859
- relative viability (Crenolanib + Alpelisib; first compound 0.1 µM): 0.888
- relative viability (Crenolanib + Alpelisib; first compound 0.3162 µM): 0.886
- relative viability (Crenolanib + Alpelisib; first compound 1 µM): 0.942
- relative viability (Crenolanib + Phenformin; first compound 0.01 µM): 0.316
- relative viability (Crenolanib + Phenformin; first compound 0.03162 µM): 0.329
- relative viability (Crenolanib + Phenformin; first compound 0.1 µM): 0.295
- relative viability (Crenolanib + Phenformin; first compound 0.3162 µM): 0.34
- relative viability (Crenolanib + Phenformin; first compound 1 µM): 0.352
- relative viability (Crenolanib + Trametinib; first compound 0.01 µM): 0.686
- relative viability (Crenolanib + Trametinib; first compound 0.03162 µM): 0.643
- relative viability (Crenolanib + Trametinib; first compound 0.1 µM): 0.651
- relative viability (Crenolanib + Trametinib; first compound 0.3162 µM): 0.692
- relative viability (Crenolanib + Trametinib; first compound 1 µM): 0.667

Cell Line: LK-2
- relative viability (Tivantinib + Vorinostat; first compound 0.01 µM): 0.219
- relative viability (Tivantinib + Vorinostat; first compound 0.03162 µM): 0.34
- relative viability (Tivantinib + Vorinostat; first compound 0.1 µM): 0.217
- relative viability (Tivantinib + Vorinostat; first compound 0.3162 µM): 0.311
- relative viability (Crenolanib + Alpelisib; first compound 0.01 µM): 0.637
- relative viability (Crenolanib + Alpelisib; first compound 0.03162 µM): 0.924
- relative viability (Crenolanib + Alpelisib; first compound 0.1 µM): 1.1
- relative viability (Crenolanib + Alpelisib; first compound 0.3162 µM): 0.956
- relative viability (Crenolanib + Alpelisib; first compound 1 µM): 0.997
- relative viability (Crenolanib + Phenformin; first compound 0.01 µM): 0.472
- relative viability (Crenolanib + Phenformin; first compound 0.03162 µM): 0.446
- relative viability (Crenolanib + Phenformin; first compound 0.1 µM): 0.411
- relative viability (Crenolanib + Phenformin; first compound 0.3162 µM): 0.314
- relative viability (Crenolanib + Phenformin; first compound 1 µM): 0.317
- relative viability (Crenolanib + Trametinib; first compound 0.01 µM): 0.987
- relative viability (Crenolanib + Trametinib; first compound 0.03162 µM): 0.747
- relative viability (Crenolanib + Trametinib; first compound 0.1 µM): 0.859
- relative viability (Crenolanib + Trametinib; first compound 0.3162 µM): 0.899
- relative viability (Crenolanib + Trametinib; first compound 1 µM): 0.727

Cell Line: LOU-NH91
- relative viability (Tivantinib + Vorinostat; first compound 0.01 µM): 0.838
- relative viability (Tivantinib + Vorinostat; first compound 0.03162 µM): 0.811
- relative viability (Tivantinib + Vorinostat; first compound 0.1 µM): 0.916
- relative viability (Tivantinib + Vorinostat; first compound 0.3162 µM): 0.749
- relative viability (Crenolanib + Alpelisib; first compound 0.01 µM): 0.784
- relative viability (Crenolanib + Alpelisib; first compound 0.03162 µM): 0.755
- relative viability (Crenolanib + Alpelisib; first compound 0.1 µM): 0.635
- relative viability (Crenolanib + Alpelisib; first compound 0.3162 µM): 0.641
- relative viability (Crenolanib + Alpelisib; first compound 1 µM): 0.694
- relative viability (Crenolanib + Phenformin; first compound 0.01 µM): 0.862
- relative viability (Crenolanib + Phenformin; first compound 0.03162 µM): 0.657
- relative viability (Crenolanib + Phenformin; first compound 0.1 µM): 0.711
- relative viability (Crenolanib + Phenformin; first compound 0.3162 µM): 0.667
- relative viability (Crenolanib + Phenformin; first compound 1 µM): 0.692
- relative viability (Crenolanib + Trametinib; first compound 0.01 µM): 0.826
- relative viability (Crenolanib + Trametinib; first compound 0.03162 µM): 0.793
- relative viability (Crenolanib + Trametinib; first compound 0.1 µM): 0.774
- relative viability (Crenolanib + Trametinib; first compound 0.3162 µM): 0.879
- relative viability (Crenolanib + Trametinib; first compound 1 µM): 0.788

Cell Line: LU99A
- relative viability (Tivantinib + Vorinostat; first compound 0.01 µM): 0.514
- relative viability (Tivantinib + Vorinostat; first compound 0.03162 µM): 0.438
- relative viability (Tivantinib + Vorinostat; first compound 0.1 µM): 0.456
- relative viability (Tivantinib + Vorinostat; first compound 0.3162 µM): 0.47
- relative viability (Crenolanib + Alpelisib; first compound 0.01 µM): 0.565
- relative viability (Crenolanib + Alpelisib; first compound 0.03162 µM): 0.503
- relative viability (Crenolanib + Alpelisib; first compound 0.1 µM): 0.49
- relative viability (Crenolanib + Alpelisib; first compound 0.3162 µM): 0.526
- relative viability (Crenolanib + Alpelisib; first compound 1 µM): 0.506
- relative viability (Crenolanib + Phenformin; first compound 0.01 µM): 0.95
- relative viability (Crenolanib + Phenformin; first compound 0.03162 µM): 0.748
- relative viability (Crenolanib + Phenformin; first compound 0.1 µM): 0.818
- relative viability (Crenolanib + Phenformin; first compound 0.3162 µM): 0.902
- relative viability (Crenolanib + Phenformin; first compound 1 µM): 0.822
- relative viability (Crenolanib + Trametinib; first compound 0.01 µM): 0.527
- relative viability (Crenolanib + Trametinib; first compound 0.03162 µM): 0.499
- relative viability (Crenolanib + Trametinib; first compound 0.1 µM): 0.514
- relative viability (Crenolanib + Trametinib; first compound 0.3162 µM): 0.618
- relative viability (Crenolanib + Trametinib; first compound 1 µM): 0.541
